Reference: US7674586B2, “Methods of identifying modulators of L-glutamate-gated chloride channel proteins from Rhipicephalus sanguineus” (Merial Limited, priority 2000, dated 2010)

How the values were obtained:
RsGluCl2 = assay: Two-microelectrode voltage clamp of Xenopus oocytes injected with RsGluCl2 RNA; format: cell-based, Rhipicephalus sanguineus; details: for channel activation / current in response (qualitative): RsGluCl2 expressed in Xenopus oocytes as a single functional channel
Experimental: (§1) Xenopus laevis oocytes were prepared and injected using standard methods previously described [Arena, J. P., Liu, K. K., Paress, P. S. & Cully, D. P. Mol. Pharmacol. 40, 368-374 (1991); Arena, J. P., Liu, K. K., Paress, P. S., Schaeffer, J. M. & Cully, D. F., Mol. Brain. Res. 15, 339-348 (1992)]. Adult female Xenopus laevis were anesthetized with 0.17% tricaine methanesulfonate and the ovaries were surgically removed and placed in a solution consisting of (mM): NaCl 82.5, KCl 2, MgCl2 1, HEPES 5, NaPyruvate 2.5, Penicillin G. 100,000 units/L, Streptomycin Sulfate 1000 mg/L, pH 7.5 (Mod. OR-2). Ovarian lobes were broken open, rinsed several times in Mod. OR-2, and incubated in 0.2% collagenase (Sigma, Type1) in Mod. OR-2 at room temperature with gentle shaking. After 1 hour the collagenase solution was renewed and the oocytes were incubated for an additional 30-90 min until approximately 50% of the oocytes were released from the ovaries. Stage V and VI oocytes were selected and placed in media containing (mM): NaCl 96, KCl 2, MgCl2 1, CaCl2 1.8, HEPES 5, NaPyruvate 2.5, theophylline 0.5, gentamicin […], pH 7.5 (ND-96) for 16-24 hours before injection. Oocytes were injected with 50 nl of Dv8, Dv9, RsGluCl1 or RsGluCl2 RNA at a concentration of 0.2 mg/ml. Oocytes were incubated at 18° C. for 1-6 days in ND-96 before recording.
Recordings were made at room temperature in modified ND-96 consisting of (mM: NaCl 96, MgCl2 1, CaCl2 0.1, BaCl2 3.5, HEPES 5, pH 7.5. Oocytes were voltage clamped using a Dagan CA1 two microelectrode amplifier (Dagan Corporation, Minneapolis, Minn.) interfaced to a Macintosh 7100/80 computer. The current passing electrode was filled with 0.7 M KCl, 1.7 M KCitrate, and the voltage recording electrode was filled with 1 M KCl. Throughout the experiment oocytes were superfused with modified ND-96 (control solution) or with ND-96 containing potential channel activators and blockers at a rate of approximately 3 ml/min. Data were acquired at 100 Hz and filtered at 33.3 Hz using Pulse software from HEKA Elektronik (Lambrecht, Germany). […]

RsGluCl1 (T12) = assay: Two-microelectrode voltage clamp of Xenopus oocytes injected with RsGluCl1 T12 RNA; format: cell-based, Rhipicephalus sanguineus; details: for channel activation / current in response (qualitative): RsGluCl1 expressed in Xenopus oocytes
Experimental: as §1
Recordings were made at room temperature in modified ND-96 consisting of (mM: NaCl 96, MgCl2 1, CaCl2 0.1, BaCl2 3.5, HEPES 5, pH 7.5. Oocytes were voltage clamped using a Dagan CA1 two microelectrode amplifier (Dagan Corporation, Minneapolis, Minn.) interfaced to a Macintosh 7100/80 computer. The current passing electrode was filled with 0.7 M KCl, 1.7 M KCitrate, and the voltage recording electrode was filled with 1 M KCl. Throughout the experiment oocytes were superfused with modified ND-96 (control solution) or with ND-96 containing potential channel activators and blockers at a rate of approximately 3 ml/min. Data were acquired at 100 Hz and filtered at 33.3 Hz using Pulse software from HEKA Elektronik (Lambrecht, Germany). All recordings were performed from a holding potential of either 0 or −30 mV.
cRNA was synthesized from the RsGluCl 1S clone T12 and expressed in Xenopus oocytes. The channel encoded by RsGluCl-1 is a glutamate-gated chloride channel activated by IVM-PO4.

Compound | concentration at which current activation was maximal (RsGluCl2; RsGluCl2 expressed in Xenopus oocytes, FIG. 11) [µM] | current produced on application (RsGluCl1 (T12); 100 nM, compared with the glutamate-activated current, RsGluCl1 T12 in Xenopus oocytes) | channel activation / current in response (qualitative) (RsGluCl2) | channel activation / current in response (qualitative) (RsGluCl1 (T12)) | concentration at which current activation was maximal (RsGluCl1 (T12); RsGluCl1 T12 RNA in Xenopus oocytes, FIG. 10) [µM]
CC[C@H](C)[C@H]1O[C@]2(CC[C@@H]1C)C[C@@H]1C[C@@H](C/C=C(\C)[C@@H](O[C@H]3C[C@H](OC)[C@@H](O[C@H]4C[C@H](OC)[C@@H](O)[C@H](C)O4)[C@H](C)O3)[C@@H](C)/C=C/C=C3\CO[C@@H]4[C@H](O)C(C)=C[C@@H](C(=O)O1)[C@]34O)O2 [ivermectin, 22,23-dihydro-avermectin B1a] | ~1 | produces a similar although non-inactivating current | – | – | –
ivermectin phosphate | – | – | exhibit a current | activated | –
N[C@@H](CCC(=O)O)C(=O)O [glutamate] | – | – | failed to activate a current | exhibits a current | 10
